Species on record: Rattus norvegicus
Test: DrugMatrix - Regimen: Daily Repeat
Format: toxicity, organism-based, Sprague-Dawley
Parameters: regimen Daily Repeat, gender Male, age 6-8 weeks
Settings: in vivo, po, route oral GAVAGE, […]; for ABSOLUTE BASOPHIL / ABSOLUTE EOSINOPHIL / ABSOLUTE LYMPHOCYTE / ABSOLUTE MONOCYTE / ABSOLUTE SEGMENTED NEUTROPHIL / BASOPHIL / EOSINOPHIL / ERYTHROCYTE COUNT / HEMATOCRIT / HEMOGLOBIN / LEUKOCYTE COUNT / LYMPHOCYTE / MEAN CORPUSCULAR HEMOGLOBIN / MEAN CORPUSCULAR HEMOGLOBIN CONCENTRATION / MEAN CORPUSCULAR VOLUME / MONOCYTE / NEUTROPHIL / NUCLEATED RED BLOOD CELLS / PLATELET COUNT: tissue Blood; for ALANINE AMINOTRANSFERASE / ALBUMIN / ALKALINE PHOSPHATASE / ASPARTATE AMINOTRANSFERASE / BLOOD UREA NITROGEN / CARBON DIOXIDE / CHLORIDE / CHOLESTEROL / CREATINE PHOSPHOKINASE / CREATININE / GLUCOSE / LACTATE DEHYDROGENASE / LIPASE / PHOSPHORUS / POTASSIUM / SODIUM / TOTAL BILIRUBIN / TOTAL PROTEIN / URIC ACID: tissue Plasma
[1] = 0 mg/kg, 72 h, dose level Control, time 3 day
[2] = 0 mg/kg, 120 h, dose level Control, time 5 day
[3] = 80 mg/kg, 72 h, dose level Low, time 3 day

Structure (SMILES): CC(C)(Oc1ccc(C2CCCc3ccccc32)cc1)C(=O)O (centres undefined) [NAFENOPIN]
- ABSOLUTE BASOPHIL [1]: 0 CELLS/uL
- ABSOLUTE EOSINOPHIL [1]: 47.67 CELLS/uL
- ABSOLUTE LYMPHOCYTE [1]: 11079 CELLS/uL
- ABSOLUTE MONOCYTE [1]: 251.67 CELLS/uL
- ABSOLUTE SEGMENTED NEUTROPHIL [1]: 1505 CELLS/uL
- BASOPHIL [1]: 0%
- EOSINOPHIL [1]: 0.33%
- ERYTHROCYTE COUNT [1]: 5.31 x10E6/uL
- HEMATOCRIT [1]: 32.87%
- HEMOGLOBIN [1]: 12.27 G/DL
- LEUKOCYTE COUNT [1]: 12.88 x10E3/uL
- LYMPHOCYTE [1]: 86.17%
- MEAN CORPUSCULAR HEMOGLOBIN [1]: 23.2 pg
- MEAN CORPUSCULAR HEMOGLOBIN CONCENTRATION [1]: 37.37 G/DL
- MEAN CORPUSCULAR VOLUME [1]: 62.03 fL
- MONOCYTE [1]: 2%
- NEUTROPHIL [1]: 11.5%
- NUCLEATED RED BLOOD CELLS [1]: 0 /100WBC
- PLATELET COUNT [1]: 956.5 x10E3/uL
- ALANINE AMINOTRANSFERASE [1]: 69.67 u/L
- ALBUMIN [1]: 4.15 G/DL
- ALKALINE PHOSPHATASE [1]: 415.33 u/L
- ASPARTATE AMINOTRANSFERASE [1]: 93.17 u/L
- BLOOD UREA NITROGEN [1]: 17.33 mg/dL
- CARBON DIOXIDE [1]: 27.33 mmol/L
- CHLORIDE [1]: 100.17 MEQ/L
- CHOLESTEROL [1]: 76.5 mg/dL
- CREATINE PHOSPHOKINASE [1]: 587 u/L
- CREATININE [1]: 0.25 mg/dL
- GLUCOSE [1]: 155.5 mg/dL
- LACTATE DEHYDROGENASE [1]: 343.5 u/L
- LIPASE [1]: 11.17 u/L
- PHOSPHORUS [1]: 11.77 mg/dL
- POTASSIUM [1]: 6.51 MEQ/L
- SODIUM [1]: 140.93 MEQ/L
- TOTAL BILIRUBIN [1]: 0.2 mg/dL
- TOTAL PROTEIN [1]: 5.87 G/DL
- URIC ACID [1]: 1.43 mg/dL
- ABSOLUTE BASOPHIL [2]: 0 CELLS/uL
- ABSOLUTE EOSINOPHIL [2]: 22.67 CELLS/uL
- ABSOLUTE LYMPHOCYTE [2]: 12729.33 CELLS/uL
- ABSOLUTE MONOCYTE [2]: 424.67 CELLS/uL
- ABSOLUTE SEGMENTED NEUTROPHIL [2]: 2006.67 CELLS/uL
- BASOPHIL [2]: 0%
- EOSINOPHIL [2]: 0.17%
- ERYTHROCYTE COUNT [2]: 5.48 x10E6/uL
- HEMATOCRIT [2]: 33.32%
- HEMOGLOBIN [2]: 12.73 G/DL
- LEUKOCYTE COUNT [2]: 15.18 x10E3/uL
- LYMPHOCYTE [2]: 83.83%
- MEAN CORPUSCULAR HEMOGLOBIN [2]: 23.25 pg
- MEAN CORPUSCULAR HEMOGLOBIN CONCENTRATION [2]: 38.22 G/DL
- MEAN CORPUSCULAR VOLUME [2]: 60.85 fL
- MONOCYTE [2]: 2.83%
- NEUTROPHIL [2]: 13.17%
- NUCLEATED RED BLOOD CELLS [2]: 0 /100WBC
- PLATELET COUNT [2]: 909.83 x10E3/uL
- ALANINE AMINOTRANSFERASE [2]: 57.67 u/L
- ALBUMIN [2]: 4.03 G/DL
- ALKALINE PHOSPHATASE [2]: 472.33 u/L
- ASPARTATE AMINOTRANSFERASE [2]: 80.83 u/L
- BLOOD UREA NITROGEN [2]: 14.67 mg/dL
- CARBON DIOXIDE [2]: 31.83 mmol/L
- CHLORIDE [2]: 96 MEQ/L
- CHOLESTEROL [2]: 68 mg/dL
- CREATINE PHOSPHOKINASE [2]: 281.67 u/L
- CREATININE [2]: 0.19 mg/dL
- GLUCOSE [2]: 147.33 mg/dL
- LACTATE DEHYDROGENASE [2]: 210.83 u/L
- LIPASE [2]: 11 u/L
- PHOSPHORUS [2]: 11.63 mg/dL
- POTASSIUM [2]: 6.06 MEQ/L
- SODIUM [2]: 139.37 MEQ/L
- TOTAL BILIRUBIN [2]: 0.17 mg/dL
- TOTAL PROTEIN [2]: 5.82 G/DL
- URIC ACID [2]: 1.12 mg/dL
- ABSOLUTE BASOPHIL [3]: 0 CELLS/uL
- ABSOLUTE EOSINOPHIL [3]: 91 CELLS/uL
- ABSOLUTE LYMPHOCYTE [3]: 10987.33 CELLS/uL
- ABSOLUTE MONOCYTE [3]: 229 CELLS/uL
- ABSOLUTE SEGMENTED NEUTROPHIL [3]: 2392.67 CELLS/uL
- BASOPHIL [3]: 0%
- EOSINOPHIL [3]: 0.67%
- ERYTHROCYTE COUNT [3]: 5.31 x10E6/uL
- HEMATOCRIT [3]: 33.1%
- HEMOGLOBIN [3]: 12.4 G/DL
- LEUKOCYTE COUNT [3]: 13.7 x10E3/uL
- LYMPHOCYTE [3]: 80.33%
- MEAN CORPUSCULAR HEMOGLOBIN [3]: 23.37 pg
- MEAN CORPUSCULAR HEMOGLOBIN CONCENTRATION [3]: 37.47 G/DL
- MEAN CORPUSCULAR VOLUME [3]: 62.37 fL
- MONOCYTE [3]: 1.67%
- NEUTROPHIL [3]: 17.33%
- NUCLEATED RED BLOOD CELLS [3]: 0 /100WBC
- PLATELET COUNT [3]: 1097 x10E3/uL
- ALANINE AMINOTRANSFERASE [3]: 88 u/L
- ALBUMIN [3]: 4.7 G/DL
- ALKALINE PHOSPHATASE [3]: 593 u/L
- ASPARTATE AMINOTRANSFERASE [3]: 109.67 u/L
- BLOOD UREA NITROGEN [3]: 15.33 mg/dL
- CARBON DIOXIDE [3]: 25.67 mmol/L
- CHLORIDE [3]: 102.33 MEQ/L
- CHOLESTEROL [3]: 44.33 mg/dL
- CREATINE PHOSPHOKINASE [3]: 372 u/L
- CREATININE [3]: 0.23 mg/dL
- GLUCOSE [3]: 141 mg/dL
- LACTATE DEHYDROGENASE [3]: 370.67 u/L
- LIPASE [3]: 10.67 u/L
- PHOSPHORUS [3]: 12.4 mg/dL
- POTASSIUM [3]: 6.4 MEQ/L
- SODIUM [3]: 144.37 MEQ/L
- TOTAL BILIRUBIN [3]: 0.1 mg/dL
- TOTAL PROTEIN [3]: 5.57 G/DL
- URIC ACID [3]: 1.3 mg/dL
